Where a name gives a salt, the structure may show the parent alone.
Test system: Histone H3 Citrullination in Neutrophils
Assay: Citrullination ELISA (Citrullinated Histone H3) in calcium ionophore stimulated neutrophils
Format: cell-based
Settings: Neutrophil; human neutrophils, 25 μM calcium ionophore, CitH3 ELISA
Procedure: Neutrophils were isolated according to the EasySep Direct Human Neutrophil Isolation Kit. In short, 50 mL of blood sample was drawn in a vacutainer containing K2EDTA from a healthy donor. To the whole blood, the isolation cocktail of 50 μL/mL was added. Then, in the next step 50 μL/mL of RapidSpheres™ was added to the sample. The sample was mixed evenly with the pipette and incubated for 10 minutes at room temperature. After incubation, PBS containing 1 mM EDTA was added at the ratio of 1:1 to the blood. Then the sample tube was incubated for 10 minutes. The enriched cell suspension was transferred into a new tube and RapidSpheres™ were added at 50 μL/mL to this suspension, mixed and incubated for 10 minutes at room temperature. At this step, the enriched cell suspension was carefully collected as a clear fraction into a fresh tube. Then, previous tube was replaced with the fresh tube containing enriched cell suspension. After the final separation, the clear solution of enriched cell suspension was carefully transferred to fresh tube which was ready to use for the experiment. These cells were then subjected to wash twice with plain RPMI 1640 media without Fetal Bovine Serum (FBS) and centrifuged at 1500 rpm for 5 minutes at room temperature. Cell counts were performed on each sample by Invitrogen cell counter. After the cell count, cell density was adjusted according to the experiment and re-suspended in complete RPMI media containing RPMI1640, 2% BSA and 1 mM CaCl2.
Freshly isolated neutrophils from human donor were seeded at a density of 0.5×10^6 cells in 400 μL cell suspension/well in a 24-well plate and cells were pre-incubated with the compound for 30 minutes by adding 50 μL of the 10× concentration to achieve the final 1× concentration of compound (10 μM, 1 μM and 0.1 μM). 1% DMSO was added in control wells. Then, the cells were stimulated in the presence and absence of calcium ionophore by adding 50 μL/well to achieve the final concentration of 25 μM. Upon incubation for 30 minutes with calcium ionophore, S7 nuclease was added to the wells and incubated for 10 minutes to disrupt NET DNA. Following incubation, 10 μL of 1 mM EDTA was added to inactivate nuclease. Cells were scrapped gently and transferred to the tubes, followed by centrifugation at 1500 rpm for 5 minutes. After centrifugation, supernatant was discarded, and 200 μL of lysis buffer containing PBS and 1× Protease inhibitor was added to the tubes. The obtained lysis was then subjected to mechanical shearing using Geno grinder by spin the plate at 2500 rpm for 10 minutes, followed by collection of supernatant and stored at −20° C. or immediately used for ELISA.
ELISA was performed as per Citrullinated Histone H3 ELISA Kit. All the buffer components from the kit were dissolved according to the manufactures protocol. ELISA Buffer Concentrate (10×) (Item No. 400060) and Wash Buffer Concentrate (400×) (Item No. 400060) along with polysorbate 20 (2000×) (Item No. 400035) was diluted to 1× with milliQ water. The standard for use in the ELISA was prepared as follows: • Obtain eight clean test tubes and label them, #1 through #8. Aliquot 4.9 mL of ELISA Buffer into tube #1. • Aliquot 500 μL of ELISA Buffer into the tubes #2-8. […] This tube is considered as blank, the lowest point on the standard curve.
100 μL of standards or diluted sample was added to the appropriate wells on the 96-well plate. Plates were covered with 96-well cover sheet and incubated for two hours at room temperature on an orbital shaker. The samples and standard were removed from the wells and washed four times with Wash Buffer. After the last wash, Anti-Histone H3 HRP Conjugate (Item No. 501441) (10×) stock solution was diluted in 1×ELISA buffer and 100 μL of the HRP Conjugate working solution was added to each well of the plate and incubated for one hour at room temperature on an orbital shaker. […]

Compound | IC50 [nM]
N[C@@H]1CCCN(C(=O)c2cc3c4c(c2)nc(-c2cc5cc(/C=C/c6ccccc6)ccc5n2CC2CC2)n4CCO3)C1 [Compound 144, (R,E)-(3-aminopiperidin-1-yl)(2-(1-(cyclopropylmethyl)-5-styryl-1H-indol-2-yl)-3,4-dihydro-5-oxa-1,2a-diazaacenaphthylen-7-yl)methanone] | < 100
N[C@@H]1CCCN(C(=O)c2cc3c4c(c2)nc(-c2cc5ccccc5n2Cc2ccncc2F)n4CCO3)C1 [Compound 110, (R)-(3-aminopiperidin-1-yl)(2-(1-((3-fluoropyridin-4-yl)methyl)-1H-indol-2-yl)-3,4-dihydro-5-oxa-1,2a-diazaacenaphthylen-7-yl)methanone] | < 100
N[C@@H]1CCCN(C(=O)c2cc3c4c(c2)nc(-c2cc5ccc(F)cc5n2CC2CC2)n4CCN3)C1 [Compound 151, (R)-(3-aminopiperidin-1-yl)(2-(1-(cyclopropylmethyl)-6-fluoro-1H-indol-2-yl)-5,6-dihydro-4H-imidazo[1,5,4-de]quinoxalin-8-yl)methanone] | < 100
Cc1c(-c2cc3ccccc3n2Cc2ccoc2)nc2cc(C(=O)N3CCC[C@@H](N)C3)ccn12 [Compound 37, (R)-(3-aminopiperidin-1-yl)(2-(1-(furan-3-ylmethyl)-1H-indol-2-yl)-3-methylimidazo[1,2-a]pyridin-7-yl)methanone] | < 100
Cc1c(-c2cc3ccc(F)cc3n2Cc2ccncc2)nc2cc(C(=O)N3CCC[C@@H](N)C3)ccn12 [Compound 68, (R)-(3-aminopiperidin-1-yl)(2-(6-fluoro-1-(pyridin-4-ylmethyl)-1H-indol-2-yl)-3-methylimidazo[1,2-a]pyridin-7-yl)methanone] | < 100
Cc1c(-c2cc3ccccc3n2Cc2ccc(F)cc2)nc2cc(C(=S)N3CCC[C@@H](N)C3)ccn12 [Compound 45, (R)-(3-aminopiperidin-1-yl)(2-(1-(4-fluorobenzyl)-1H-indol-2-yl)-3-methylimidazo[1,2-a]pyridin-7-yl)methanethione] | < 100
N[C@@H]1CCCN(C(=O)c2cc3c4c(c2)nc(-c2cc5ccc(F)cc5n2Cc2ccc(F)cc2)n4CCO3)C1 [Compound 135, (R)-(3-aminopiperidin-1-yl)(2-(6-fluoro-1-(4-fluorobenzyl)-1H-indol-2-yl)-3,4-dihydro-5-oxa-1,2a-diazaacenaphthylen-7-yl)methanone] | < 100
N[C@@H]1CCCN(C(=O)c2cc3c4c(c2)nc(-c2cc5ccccc5n2Cc2ccccc2)n4CCO3)C1 [Compound 104, (R)-(3-aminopiperidin-1-yl)(2-(1-benzyl-1H-indol-2-yl)-3,4-dihydro-5-oxa-1,2a-diazaacenaphthylen-7-yl)methanone] | 100 to 1000
N[C@@H]1CCCN(C(=O)c2cc3c4c(c2)nc(-c2cc5ccccc5n2CC2CC2)n4CCN3)C1 [Compound 149, (R)-(3-aminopiperidin-1-yl)(2-(1-(cyclopropylmethyl)-1H-indol-2-yl)-5,6-dihydro-4H-imidazo[1,5,4-de]quinoxalin-8-yl)methanone] | 100 to 1000
COCCn1c(-c2nc3cc(C(=O)N4CCC[C@@H](N)C4)cc4c3n2CCO4)cc2ccccc21 [Compound 106, (R)-(3-aminopiperidin-1-yl)(2-(1-(2-methoxyethyl)-1H-indol-2-yl)-3,4-dihydro-5-oxa-1,2a-diazaacenaphthylen-7-yl)methanone] | 100 to 1000
Cc1c(-c2cc3ccccc3n2Cc2ccncc2)nc2cc(C(=O)N3CCC[C@@H](N)C3)ccn12 [Compound 10, (R)-(3-aminopiperidin-1-yl)(3-methyl-2-(1-(pyridin-4-ylmethyl)-1H-indol-2-yl)imidazo[1,2-a]pyridin-7-yl)methanone] | < 100
COc1ccc2cc(-c3nc4cc(C(=O)N5CCC[C@@H](N)C5)cc5c4n3CCO5)n(CC3CC3)c2c1 [Compound 109, (R)-(3-aminopiperidin-1-yl)(2-(1-(cyclopropylmethyl)-6-methoxy-1H-indol-2-yl)-3,4-dihydro-5-oxa-1,2a-diazaacenaphthylen-7-yl)methanone] | 100 to 1000
CC(=O)N1CCn2c(-c3cc4ccccc4n3CC3CC3)nc3cc(C(=O)N4CCC[C@@H](N)C4)cc1c32 [Compound 171, (R)-1-(8-(3-aminopiperidine-1-carbonyl)-2-(1-(cyclopropylmethyl)-1H-indol-2-yl)-4,5-dihydro-6H-imidazo[1,5,4-de]quinoxalin-6-yl)ethan-1-one] | < 100
Cc1c(-c2cc3ccccc3n2CC2CCOCC2)nc2cc(C(=O)N3CCC[C@@H](N)C3)ccn12 [Compound 11, (R)-(3-aminopiperidin-1-yl)(3-methyl-2-(1-((tetrahydro-2H-pyran-4-yl)methyl)-1H-indol-2-yl)imidazo[1,2-a]pyridin-7-yl)methanone] | 100 to 1000
N[C@@H]1CCCN(C(=O)c2cc3c4c(c2)nc(-c2cc5ccccc5n2Cc2ncccc2F)n4CCO3)C1 [Compound 112, (R)-(3-aminopiperidin-1-yl)(2-(1-((3-fluoropyridin-2-yl)methyl)-1H-indol-2-yl)-3,4-dihydro-5-oxa-1,2a-diazaacenaphthylen-7-yl)methanone] | < 100
COc1ccc2cc(-c3nc4cc(C(=O)N5CCC[C@@H](N)C5)cc5c4n3CCN5)n(CC3CC3)c2c1 [Compound 159, (R)-(3-aminopiperidin-1-yl)(2-(1-(cyclopropylmethyl)-6-methoxy-1H-indol-2-yl)-5,6-dihydro-4H-imidazo[1,5,4-de]quinoxalin-8-yl)methanone] | 100 to 1000
COc1cccc(Cn2c(-c3nc4cc(C(=O)N5CCC[C@@H](N)C5)ccn4c3C)cc3ccc(F)cc32)c1 [Compound 70, (R)-(3-aminopiperidin-1-yl)(2-(6-fluoro-1-(3-methoxybenzyl)-1H-indol-2-yl)-3-methylimidazo[1,2-a]pyridin-7-yl)methanone] | < 100
COc1ccc2cc(-c3nc4cc(C(=O)N5CCC[C@@H](N)C5)cc5c4n3CCO5)n(Cc3ccc(F)cc3)c2c1 [Compound 137, (R)-(3-aminopiperidin-1-yl)(2-(1-(4-fluorobenzyl)-6-methoxy-1H-indol-2-yl)-3,4-dihydro-5-oxa-1,2a-diazaacenaphthylen-7-yl)methanone] | > 1000
COc1ccc(Cn2c(-c3nc4cc(C(=O)N5CCC[C@@H](N)C5)ccn4c3C)cc3ccc(F)cc32)cc1 [Compound 71, (R)-(3-aminopiperidin-1-yl)(2-(6-fluoro-1-(4-methoxybenzyl)-1H-indol-2-yl)-3-methylimidazo[1,2-a]pyridin-7-yl)methanone] | > 1000
N[C@@H]1CCCN(C(=O)c2cc3c4c(c2)nc(-c2cc5ccccc5n2Cc2ccc(Cl)cc2)n4CCO3)C1 [Compound 99, (R)-(3-aminopiperidin-1-yl)(2-(1-(4-chlorobenzyl)-1H-indol-2-yl)-3,4-dihydro-5-oxa-1,2a-diazaacenaphthylen-7-yl)methanone] | 100 to 1000
COc1cccc(Cn2c(-c3nc4cc(C(=O)N5CCC[C@@H](N)C5)ccn4c3C)cc3ccccc32)c1 [Compound 42, (R)-(3-aminopiperidin-1-yl)(2-(1-(3-methoxybenzyl)-1H-indol-2-yl)-3-methylimidazo[1,2-a]pyridin-7-yl)methanone] | < 100
Cc1c(-c2cc3ccc(F)cc3n2CC2CC2)nc2cc(C(=O)N3CCC[C@@H](N)C3)ccn12 [Compound 52, (R)-(3-aminopiperidin-1-yl)(2-(1-(cyclopropylmethyl)-6-fluoro-1H-indol-2-yl)-3-methylimidazo[1,2-a]pyridin-7-yl)methanone trifluoroacetic acid salt] | 100 to 1000
Cc1cc(C(=O)N2CCC[C@@H](N)C2)cc2nc(-c3cc4ccccc4n3CC3CC3)c(C)n12 [Compound 25, (R)-(3-aminopiperidin-1-yl)(2-(1-(cyclopropylmethyl)-1H-indol-2-yl)-3,5-dimethylimidazo[1,2-a]pyridin-7-yl)methanone] | 100 to 1000

— patent US20220047569A1, “METHOD AND COMPOUND FOR USE, IN TREATING AND/OR PREVENTING NETOSIS” (Jubilant EpiPad LLC, priority 2020, published 2022)
